The test system of assay [1] is Staphylococcus aureus. The experiment in a line: microbe, parasite or virus in culture. To be noted: ATCC 29213.
Description: Antibacterial activity against Staphylococcus aureus ATCC 29213 assessed as bacterial growth inhibition incubated for 16 to 18 hrs by broth microdilution method
Assay [2] deals with Escherichia coli. The experiment in a line: Antibacterial activity against Escherichia coli ATCC 25922 assessed as bacterial growth inhibition incubated for 16 to 18 hrs by broth microdilution method. Type of assay: functional. Particulars: time 16-18 hrs. In general terms: Broth dilution looks for growth in wells or tubes with falling amounts of substance.
Assay [3] has as its system Acinetobacter baumannii. The experiment in a line: Antibacterial activity against Acinetobacter baumannii BAA 1605 assessed as bacterial growth inhibition incubated for 16 to 18 hrs by broth microdilution method. The format is functional. To be noted: time 16-18 hrs.
Assay [4] concerns Acinetobacter baumannii. Briefly: Antibacterial activity against Acinetobacter baumannii BAA-1605 ssessed as bacterial growth inhibition in presence of outermembrane permeabilizer, PMBN incubated for 16 to 18 hrs by broth microdilution method. Type of assay: functional. To be noted: time 16-18 hrs.
In assay [5] the test system is Escherichia coli. Briefly: Antibacterial activity against Escherichia coli ATCC 25922 assessed as bacterial growth inhibition in presence of outermembrane permeabilizer, PMBN incubated for 16 to 18 hrs by broth microdilution method. Type of assay: functional. To be noted: time 16-18 hrs.
The test system of assay [6] is Staphylococcus aureus. Briefly: Antibiofilm activity against Staphylococcus aureus ATCC 29213 assessed as reduction in preformed bacterial biofilm at 1XMIC incubated for 24 hrs by crystal violet staining based microtiter plate reader assay. The format is functional.
Assay [7] deals with Staphylococcus aureus. Briefly: Antibiofilm activity against Staphylococcus aureus ATCC 29213 assessed as reduction in preformed bacterial biofilm at 10XMIC incubated for 24 hrs by crystal violet staining based microtiter plate reader assay. Type of assay: functional.
Assay [8] has as its system Staphylococcus aureus. Briefly: Antibacterial activity against Staphylococcus aureus ATCC 29213 assessed as time for post-antibiotic effect at 10XMIC incubated for 1 hr followed by drug wash-out and measured every single 1 hr. The format is functional.
In assay [9] the test system is Staphylococcus aureus. The experiment in a line: Antibacterial activity against Staphylococcus aureus ATCC 29213 assessed as time for post-antibiotic effect at 1XMIC incubated for 1 hr followed by drug wash-out and measured every single 1 hr. The format is functional.
In assay [10] the test system is Staphylococcus aureus. Briefly: Antibacterial activity against Staphylococcus aureus ATCC 29213 assessed as time for increase by 1 log10CFU at 10XMIC incubated for 1 hr followed by drug wash-out and measured every single 1 hr. Type of assay: functional.
Assay [11] deals with Staphylococcus aureus. Briefly: Antibacterial activity against Staphylococcus aureus ATCC 29213 infected in mouse J774.A1 assessed as reduction in intracellular bacterial burden at 5XMIC incubated for 24 hrs followed by replating on TSA plate for 24 hrs by intracellular killing assay. The format is functional. Particulars: time 48.0 hrs.
Assay [12] has as its system Staphylococcus aureus. The experiment in a line: Antibacterial activity against Staphylococcus aureus ATCC 29213 assessed as time for increase by 1 log10CFU at 1XMIC incubated for 1 hr followed by drug wash-out and measured every single 1 hr. The format is functional.
Assay [13] has as its system Staphylococcus aureus. The experiment in a line: Bactericidal activity against Staphylococcus aureus ATCC 29213 assessed as reduction in bacterial load at 1X MIC preincubated for 6 hrs followed by subculturing on TSA plate for 18 to 20 hrs by time-kill assay. The format is functional. To be noted: time 24-26 hrs.
A further assay has as its system Pseudomonas aeruginosa. Briefly: Antibacterial activity against Pseudomonas aeruginosa ATCC 27853 assessed as bacterial growth inhibition incubated for 16 to 18 hrs by broth microdilution method. The format is functional. Particulars: time 16-18 hrs.
A further assay has as its system Enterococcus. Briefly: Antibacterial activity against Enterococcus NR 31884 assessed as bacterial growth inhibition incubated for 16 to 18 hrs by broth microdilution method. The format is functional. To be noted: time 16-18 hrs.
Another assay relates to Klebsiella pneumoniae. Briefly: Antibacterial activity against Klebsiella pneumoniae BAA-1705 assessed as bacterial growth inhibition incubated for 16 to 18 hrs by broth microdilution method. The format is functional. To be noted: time 16-18 hrs.
Assay [14] relates to Staphylococcus aureus. Briefly: Antibacterial activity against Staphylococcus aureus ATCC 29213 assessed as reduction in bacterial growth at sub-MIC incubated for 25 days. The format is functional, organism-based. Particulars: time 25.0 day.

Each structure is given as a SMILES string. Converted amounts (≈) assume the structure as drawn. The source made the active and inactive calls. The rule behind the calls is not given here. Where only a bound is given, the exact number is not on record here.

10 molecules from ChEMBL document CHEMBL4840338, “Cudraflavone C from Artocarpus hirsutus as a Promising Inhibitor of Pathogenic, Multidrug-Resistant S. aureus, Persisters, and Biofilms: A New Insight into a Rational Explanation of Traditional Wisdom” (J Nat Prod, 2021) can be followed below.

In the case of `CC(C)(O/N=C(\C(=O)N[C@@H]1C(=O)N2C(C(=O)[O-])=C(C[n+]3ccccc3)CS[C@H]12)c1csc(N)n1)C(=O)O` [CEFTAZIDIME], in the assay with Staphylococcus aureus [1], the MIC was 16 µg/mL (≈ 29.3 µM).

In the assay on Staphylococcus aureus [1], `C[C@@H](O)[C@H]1C(=O)N2C(C(=O)O)=C(S[C@@H]3CN[C@H](C(=O)N(C)C)C3)[C@H](C)[C@H]12` [MEROPENEM] gave an MIC of 1 µg/mL (≈ 2.61 µM).

As for `CO[C@H]1/C=C/O[C@@]2(C)Oc3c(C)c(O)c4c(O)c(c(/C=N/N5CCN(C)CC5)c(O)c4c3C2=O)NC(=O)/C(C)=C\C=C\[C@H](C)[C@H](O)[C@@H](C)[C@@H](O)[C@@H](C)[C@H](OC(C)=O)[C@@H]1C` [RIFAMPIN], the MIC is 0.0078 µg/mL (≈ 0.00948 µM) against Staphylococcus aureus [1]; 8 µg/mL (≈ 9.72 µM) in the assay with Escherichia coli [2]; 2 µg/mL (≈ 2.43 µM) in the assay with Acinetobacter baumannii [3]; 0.03 µg/mL in the assay on Acinetobacter baumannii [4]; 0.06 µg/mL in the assay on Escherichia coli [5].

Consider `CN[C@H](CC(C)C)C(=O)N[C@H]1C(=O)N[C@@H](CC(N)=O)C(=O)N[C@H]2C(=O)N[C@H]3C(=O)N[C@H](C(=O)N[C@H](C(=O)O)c4cc(O)cc(O)c4-c4cc3ccc4O)[C@H](O)c3ccc(c(Cl)c3)Oc3cc2cc(c3O[C@@H]2O[C@H](CO)[C@@H](O)[C@H](O)[C@H]2O[C@H]2C[C@](C)(N)[C@H](O)[C@H](C)O2)Oc2ccc(cc2Cl)[C@H]1O` [VANCOMYCIN], for which the outcome with Staphylococcus aureus [6] and in the assay with Staphylococcus aureus [11] was inactive. For the same molecule, the “inhibition (INH)” value in the assay on Staphylococcus aureus [7] is listed as 7.7%. The Time in the assay with Staphylococcus aureus [8] was found to be 1.5 h; with Staphylococcus aureus [9] it was 1 h; with Staphylococcus aureus [10], 3.5 h; in the assay with Staphylococcus aureus [12], 3 h. Also, the MIC in the assay on Escherichia coli [2] is 512 µg/mL (≈ 353 µM); in the assay on Acinetobacter baumannii [3], 256 µg/mL (≈ 177 µM); in the assay on Acinetobacter baumannii [4] it was 64 µg/mL; in the assay with Escherichia coli [5], 128 µg/mL. Also, in the assay on Staphylococcus aureus [13], the Activity came out at 1 log10CFU/ml.

In the case of `CCCCCCCCCC(=O)N[C@@H](Cc1c[nH]c2ccccc12)C(=O)N[C@H](CC(N)=O)C(=O)N[C@@H](CC(=O)O)C(=O)N[C@@H]1C(=O)NCC(=O)N[C@@H](CCCN)C(=O)N[C@@H](CC(=O)O)C(=O)N[C@H](C)C(=O)N[C@@H](CC(=O)O)C(=O)NCC(=O)N[C@H](CO)C(=O)N[C@@H]([C@H](C)CC(=O)O)C(=O)N[C@@H](CC(=O)c2ccccc2N)C(=O)O[C@@H]1C`, the MIC with Staphylococcus aureus [1] was found to be 1 µg/mL (≈ 0.617 µM).

In the case of `Oc1cc(O)cc(/C=C/c2ccc(O)cc2O)c1` [OXYRESVERATROL], the MIC with Pseudomonas aeruginosa, in the assay on Staphylococcus aureus [1], in the assay with Escherichia coli [2], in the assay with Enterococcus, with Acinetobacter baumannii [3] and in the assay on Klebsiella pneumoniae was over 64 µg/mL throughout.

In turn, `CN(C)c1ccc(O)c2c1C[C@H]1C[C@H]3[C@H](N(C)C)C(O)=C(C(N)=O)C(=O)[C@@]3(O)C(O)=C1C2=O` [MINOCYCLINE] showed an MIC in the assay on Staphylococcus aureus [1] of 0.25 µg/mL (≈ 0.546 µM).

For the molecule `CC(C)=CC1Oc2cc(O)ccc2-c2oc3cc4c(c(O)c3c(=O)c21)C=CC(C)(C)O4` (stereo not drawn) [CUDRAFLAVONE A], the MIC in the assay with Pseudomonas aeruginosa, against Staphylococcus aureus [1], in the assay on Escherichia coli [2], with Enterococcus, in the assay on Acinetobacter baumannii [3] and with Klebsiella pneumoniae was over 64 µg/mL each time.

Regarding `COc1cc2oc3c(c(=O)c2c(O)c1/C=C/C(C)C)C(C=C(C)C)Oc1cc(O)ccc1-3` (stereo not drawn), the MIC with Pseudomonas aeruginosa, with Staphylococcus aureus [1], in the assay with Escherichia coli [2], in the assay on Enterococcus, in the assay with Acinetobacter baumannii [3] and with Klebsiella pneumoniae was over 64 µg/mL in each case.

`C[C@H]1COc2c(N3CCN(C)CC3)c(F)cc3c(=O)c(C(=O)O)cn1c23.C[C@H]1COc2c(N3CCN(C)CC3)c(F)cc3c(=O)c(C(=O)O)cn1c23.O` [LEVOFLOXACIN]: the Time in the assay with Staphylococcus aureus [8] came to 1 h; with Staphylococcus aureus [9] it was 0.5 h; with Staphylococcus aureus [10], 3 h; in the assay on Staphylococcus aureus [12] it was 2.5 h. Further, the MIC is 0.5 µg/mL in the assay on Pseudomonas aeruginosa, 0.125 µg/mL with Staphylococcus aureus [1], 0.25 µg/mL in the assay on Enterococcus and 64 µg/mL in the assay on Klebsiella pneumoniae. Moreover, the outcome in the assay with Staphylococcus aureus [14] was inactive.
